Data on twelve compounds can be found in patent US20240148821A1, “PHARMACEUTICAL USE OF CYCLIC PEPTIDE COMPOUND” (CHUGAI SEIYAKU KABUSHIKI KAISHA, priority 2021, published 2024).

Each structure is given as a SMILES string. Bridge positions count the residues as written; N and C are the ends. Square brackets hold non-standard residues; d marks the D form. Peptide text beside a SMILES is read from it. * marks the point of attachment. hPhe(3,5-F2-4-CF3) = N[C@@H](CCc1cc(F)c(C(F)(F)F)c(F)c1)C(=O)O; hPhe(3-Cl-4-CF3) = N[C@@H](CCc1ccc(C(F)(F)F)c(Cl)c1)C(=O)O; hPhe(3-F,4-CF3) = N[C@@H](CCc1ccc(C(F)(F)F)c(F)c1)C(=O)O; NMePhe(4-CF3) = CN[C@@H](Cc1ccc(C(F)(F)F)cc1)C(=O)O; 3Oxa8azabicyclo(3.2.1)octane = C1CC2COCC1N2*; NEtPhe(4-Me) = CCN[C@@H](Cc1ccc(C)cc1)C(=O)O; NMeAbu(4,4,4-F3) = CN[C@@H](CC(F)(F)F)C(=O)O; NMePhe(4-Me) = CN[C@@H](Cc1ccc(C)cc1)C(=O)O; NMeGly(cPent) = CN[C@H](C(=O)O)C1CCCC1; NMeCha = CN[C@@H](CC1CCCCC1)C(=O)O; Hyp = O=C(O)[C@@H]1C[C@@H](O)CN1; NEtLeu = CCN[C@@H](CC(C)C)C(=O)O; NMeChg = CN[C@H](C(=O)O)C1CCCCC1; NMeI = CC[C@H](C)[C@H](NC)C(=O)O; X17 = FC1(F)CN(*)CC(F)(F)C1(F)F; NMeD = CN[C@@H](CC(=O)O)C(=O)O; NMeL = CN[C@@H](CC(C)C)C(=O)O; NMeNva = CCC[C@H](NC)C(=O)O; NMeV = CN[C@H](C(=O)O)C(C)C; d(β3hA) = C[C@@H](N)CC(=O)O; Morpholide = C1CN(*)CCO1; NMeA = CN[C@@H](C)C(=O)O; Piperidide = C1CCN(*)CC1; Pyrrolidide = C1CCN(*)C1; Ac5c = NC1(C(=O)O)CCCC1; Aze = O=C(O)[C@@H]1CCN1; NEtG = CCNCC(=O)O; Sar = CNCC(=O)O

Assay [1] addresses protein-protein interaction between Kras and SOS1 (biotin-tagged human Kras loaded with GDP, His-tagged human SOS1) (Homo sapiens (Human), UniProt P01116, G12D). Description: Protein-protein interaction inhibition between Kras and SOS1 (KrasG12D-SOS PPI) using AlphaScreen.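 Note: kras produced in E. coli, Ni-coupled donor beads and streptavidin acceptor beads, excitation 680 nm with emission detected at 520–620 nm via singlet oxygen transfer.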 In kind it is biochemical. The conditions noted are these: AlphaScreen; biotin-tagged human Kras loaded with GDP, His-tagged human SOS1; read-out: KRAS G12D-SOS PPI IC50.

Assay [2] has as its system Human pancreatic cancer cell line AsPC-1 (G12D mutation Kras). The experiment in a line: AsPC-1 cell growth inhibition (AsPC-1 CGI). Type of assay: cell-based. The conditions noted are these: read-out: AsPC-1 cell growth inhibition, 50% growth inhibitory concentration (IC50 value); 96 hours, CellTiter-Glo, values classified in ranges. (In general: Cellular ATP, detected with luciferase, serves as a proxy for viable cell number.)
Protocol: Test compounds were serially dilated with dimethyl sulfoxide, and 200 nL was then dispensed to a U-bottom 96-well plate using Labcyte Echo. […] The cell suspension was dispensed to a. plate containing a test compound at 100 μL per well and incubated at 37° C. in a 5% carbon dioxide gas incubator. 96 hours later, 80 μL of CellTiter-Glo (Promega) was added to each well and fluorescence was measured.

`CC[C@H](C)[C@@H]1NC(=O)[C@H](CC(C)C)N(C)C(=O)C[C@@H](C(=O)N(C)C)N(C)C(=O)[C@H](C2CCCC2)N(C)C(=O)C2(CCCC2)NC(=O)[C@@H]2CCCN2C(=O)[C@H](CCc2ccc(C(F)(F)F)c(F)c2)NC(=O)CN(CC)C(=O)[C@H](CC2CCCCC2)N(C)C(=O)[C@@H]2CCN2C(=O)[C@H](C)N(C)C1=O` [Compound 1205] ([NMeL]I[NMeA][Aze][NMeCha][NEtG][hPhe(3-F,4-CF3)]P[Ac5c][NMeGly(cPent)][NMeD]-NMe2; lactam N-11): the IC50 in assay [1] was 2.8 nM; in assay [2], at most 20 nM.

Turning to `CCO[C@@H]1C[C@H]2C(=O)NC3(CCCC3)C(=O)N(C)[C@@H](C3CCCCC3)C(=O)N(C)[C@H](C(=O)N3CCOCC3)CC(=O)N(C)[C@@H](CC(F)(F)F)C(=O)N[C@@H]([C@@H](C)CC)C(=O)N(C)CC(=O)N(C)CC(=O)N(C)[C@@H](Cc3ccc(C(F)(F)F)cc3)C(=O)N(C)CC(=O)N[C@@H](CCc3ccc(C(F)(F)F)c(Cl)c3)C(=O)N2C1` [Compound 1206] ([NMeAbu(4,4,4-F3)]I[Sar][Sar][NMePhe(4-CF3)][Sar][hPhe(3-Cl-4-CF3)][Hyp](Et)[Ac5c][NMeChg][NMeD]-Morpholide; lactam N-11), the IC50 in assay [1] was 0.57 nM; in assay [2], at most 20 nM.

For `CC[C@H](C)[C@@H]1NC(=O)[C@H](CC(C)C)N(CC)C(=O)C[C@@H](C(=O)N2CCOCC2)N(C)C(=O)[C@H](C2CCCC2)N(C)C(=O)C2(CCCC2)NC(=O)[C@@H]2CCCN2C(=O)[C@H](CCc2ccc(C(F)(F)F)c(Cl)c2)NC(=O)CN(C)C(=O)[C@H](C2CCCC2)N(C)C(=O)[C@@H]2CCN2C(=O)[C@H](C)N(C)C1=O` [Compound 1208] ([NEtLeu]I[NMeA][Aze][NMeGly(cPent)][Sar][hPhe(3-Cl-4-CF3)]P[Ac5c][NMeGly(cPent)][NMeD]-Morpholide; lactam N-11), the IC50 in assay [1] is 0.69 nM; in assay [2], at most 20 nM.

As for `CC[C@H](C)[C@@H]1NC(=O)[C@H](CC(C)C)N(C)C(=O)C[C@@H](C(=O)N2CCOCC2)N(C)C(=O)[C@H]([C@@H](C)CC)N(C)C(=O)C2(CCCC2)NC(=O)[C@@H]2CCCN2C(=O)[C@H](CCc2cc(F)c(C(F)(F)F)c(F)c2)NC(=O)CN(C)C(=O)[C@H](Cc2ccc(C)cc2)N(CC)C(=O)[C@@H]2CCN2C(=O)[C@H](C)N(C)C1=O` [Compound 1209] ([NMeL]I[NMeA][Aze][NEtPhe(4-Me)][Sar][hPhe(3,5-F2-4-CF3)]P[Ac5c][NMeI][NMeD]-Morpholide; lactam N-11), the IC50 was 0.85 nM in assay [1] and at most 20 nM in assay [2].

With `CCO[C@@H]1C[C@H]2C(=O)NC3(CCCC3)C(=O)N(C)[C@@H]([C@@H](C)CC)C(=O)N(C)[C@H](C(=O)N3CCCC3)CC(=O)N(C)[C@@H](CC(C)C)C(=O)N[C@@H]([C@@H](C)CC)C(=O)N(C)[C@@H](C)C(=O)N3CC[C@H]3C(=O)N(C)[C@@H](Cc3ccc(C(F)(F)F)cc3)C(=O)N(C)CC(=O)N[C@@H](CCc3cc(F)c(C(F)(F)F)c(F)c3)C(=O)N2C1` [Compound 1210] ([NMeL]I[NMeA][Aze][NMePhe(4-CF3)][Sar][hPhe(3,5-F2-4-CF3)][Hyp](Et)[Ac5c][NMeI][NMeD]-Pyrrolidide; lactam N-11), the values for the IC50 in assay [1] and in assay [2] were 0.74 nM and at most 20 nM, respectively.

With `CC[C@H](C)[C@@H]1NC(=O)[C@H](CC(C)C)N(C)C(=O)C[C@@H](C(=O)N2CCCCC2)N(C)C(=O)[C@H](C(C)C)N(C)C(=O)[C@H](C)NC(=O)[C@@H]2CCCN2C(=O)[C@H](CCc2ccc(C(F)(F)F)c(Cl)c2)NC(=O)CN(C)C(=O)[C@H](CC2CCCCC2)N(C)C(=O)[C@@H]2CCN2C(=O)[C@H](C)N(C)C1=O` [Compound 1211] ([NMeL]I[NMeA][Aze][NMeCha][Sar][hPhe(3-Cl-4-CF3)]PA[NMeV][NMeD]-Piperidide; lactam N-11), the IC50 in assay [1] is 31 nM; in assay [2], over 500 nM.

On to `CC[C@H](C)[C@@H]1NC(=O)[C@H](CC(C)C)N(C)C(=O)C[C@@H](C(=O)N2C3CCC2COC3)NC(=O)[C@H](C(C)C)N(C)C(=O)C2(CCCC2)NC(=O)[C@@H]2CCCN2C(=O)[C@H](CCc2ccc(C(F)(F)F)c(Cl)c2)NC(=O)CN(C)C(=O)[C@H](CC2CCCCC2)N(C)C(=O)[C@@H]2CCN2C(=O)[C@H](C)N(C)C1=O` [Compound 1214] ([NMeL]I[NMeA][Aze][NMeCha][Sar][hPhe(3-Cl-4-CF3)]P[Ac5c][NMeV]D-{3Oxa8azabicyclo(3.2.1)octane}; lactam N-11), for which the values for the IC50 in assay [1] and in assay [2] were 77 nM and over 500 nM, respectively.

For the compound `CC[C@H](C)[C@@H]1NC(=O)[C@H](CC(C)C)N(CC)C(=O)C[C@@H](C(=O)N2CCOCC2)N(C)C(=O)[C@H](C2CCCC2)N(C)C(=O)C2(CCCC2)NC(=O)[C@@H]2CCCN2C(=O)[C@H](CCc2ccc(C(F)(F)F)c(Cl)c2)NC(=O)CN(C)C(=O)[C@H](CC2CCCCC2)N(C)C(=O)[C@@H]2CCN2C(=O)[C@H](C)N(C)C1=O` [Compound 1220] ([NEtLeu]I[NMeA][Aze][NMeCha][Sar][hPhe(3-Cl-4-CF3)]P[Ac5c][NMeGly(cPent)][NMeD]-Morpholide; lactam N-11), the IC50 in assay [1] was 0.64 nM; in assay [2], at most 20 nM.

For `CC[C@H](C)[C@@H]1NC(=O)[C@H](CC(C)C)N(C)C(=O)C[C@@H](C)NC(=O)[C@H](C2CCCC2)N(C)C(=O)[C@@H](C)NC(=O)[C@@H]2CCCN2C(=O)[C@H](CCc2ccc(C(F)(F)F)c(Cl)c2)NC(=O)CN(C)C(=O)[C@H](Cc2ccc(C)cc2)N(C)C(=O)[C@@H]2CCN2C(=O)[C@H](C)N(C)C1=O` [Compound 1222] (cyclo([Aze][NMePhe(4-Me)][Sar][hPhe(3-Cl-4-CF3)]P[dA][NMeGly(cPent)][d(β3hA)][NMeL]I[NMeA])), the results for the IC50 in assay [1] and in assay [2] were 25 nM and over 500 nM, respectively.

Take `CCC[C@H]1C(=O)N[C@@H]([C@@H](C)CC)C(=O)N(C)CC(=O)N(C)CC(=O)N(C)[C@@H](Cc2ccc(C)cc2)C(=O)N(C)CC(=O)N[C@@H](CCc2cc(F)c(C(F)(F)F)c(F)c2)C(=O)N2C[C@H](OCC)C[C@H]2C(=O)NC2(CCCC2)C(=O)N(C)[C@@H](C2CCCCC2)C(=O)N(C)[C@H](C(=O)N2CCCC2)CC(=O)N1C` [Compound 1224] ([NMeNva]I[Sar][Sar][NMePhe(4-Me)][Sar][hPhe(3,5-F2-4-CF3)][Hyp](Et)[Ac5c][NMeChg][NMeD]-Pyrrolidide; lactam N-11): the results for the IC50 in assay [1] and in assay [2] were 0.67 nM and at most 20 nM, respectively.

`CC[C@H](C)[C@@H]1NC(=O)[C@H](CC(C)C)N(C)C(=O)C[C@@H](C(=O)N2CC(F)(F)C(F)(F)C(F)(F)C2)N(C)C(=O)[C@H](C2CCCCC2)N(C)C(=O)C2(CCCC2)NC(=O)[C@@H]2CCCN2C(=O)[C@H](CCc2ccc(C(F)(F)F)c(Cl)c2)NC(=O)CN(C)C(=O)[C@H](CC2CCCCC2)N(C)C(=O)CN(C)C(=O)CN(C)C1=O` [Compound 1229] ([NMeL]I[Sar][Sar][NMeCha][Sar][hPhe(3-Cl-4-CF3)]P[Ac5c][NMeChg][NMeD]-X17; lactam N-11): the IC50 in assay [1] was 46 nM; in assay [2] it was over 500 nM.

Take `CCO[C@@H]1C[C@H]2C(=O)NC3(CCCC3)C(=O)N(C)[C@@H](C3CCCC3)C(=O)N(C)[C@H](C(=O)N(C)C)CC(=O)N(C)[C@@H](CC(C)C)C(=O)N[C@@H]([C@@H](C)CC)C(=O)N(C)[C@@H](C)C(=O)N3CC[C@H]3C(=O)N(C)[C@@H](CC3CCCCC3)C(=O)N(C)CC(=O)N[C@@H](CCc3ccc(C(F)(F)F)c(F)c3)C(=O)N2C1` [Compound 1231] ([NMeL]I[NMeA][Aze][NMeCha][Sar][hPhe(3-F,4-CF3)][Hyp](Et)[Ac5c][NMeGly(cPent)][NMeD]-NMe2; lactam N-11): the values for the IC50 in assay [1] and in assay [2] were 0.59 nM and at most 20 nM, respectively.
